# Results from patent publication US10874667B2, “Pharmaceutical salt of antitumor heterocyclic imidazole compound” (SHANGHAI HUILUN LIFE SCIENCE & TECHNOLOGY CO., LTD., priority 2016, dated 2020).
# Test: Solubility test in water (HPLC)
# Type: physicochemical
# Conditions: stirred at constant temperature for 30 min
# Procedure: The solubility of the salt of the compound of Formula (I) of the present invention was determined by the following method:
# a) About 200 mg of the salt of the compound of Formula (I) was accurately weighed, dissolved in 200 ml of an aqueous solution, stirred at a constant temperature for 30 min, and allowed to stand. The supernatant was centrifuged, and then the supernatant of the centrifugate was taken and used as a test solution.
# b) About 200 mg of the compound of Formula (I) was accurately weighed, dissolved in aqueous methanol, and quantitatively diluted into a solution containing 0.02 mg of free base per 1 ml.
# The solution was used as a reference solution.
# The table below compares the solubilities of the compound of Formula (I) and its various forms of salts.
row,Structure (SMILES),Solubility in water
1,"CS(=O)(=O)O.O=C(c1cc(Cc2n[nH]c(=O)c3ccccc23)ccc1F)N1CCN(c2ccc3[nH]cnc3n2)CC1 [4-(3-(4-(1H-imidazo[4,5-b]pyridine-5-yl)piperazine-1-carbonyl)-4-fluorobenzyl)phthalazine-1(dihydro)-onemethanesulfonate]",300 µg/mL
2,"Cc1ccc(S(=O)(=O)O)cc1.O=C(c1cc(Cc2n[nH]c(=O)c3ccccc23)ccc1F)N1CCN(c2ccc3[nH]cnc3n2)CC1 [4-(3-(4-(1H-imidazo[4,5-b]pyridine-5-yl)piperazine-1-carbonyl)-4-fluorobenzyl)phthalazine-1(dihydro)-one p-toluenesulfonate]",40 µg/mL
3,"O=C(c1cc(Cc2n[nH]c(=O)c3ccccc23)ccc1F)N1CCN(c2ccc3[nH]cnc3n2)CC1.O=S(=O)(O)c1ccccc1 [4-(3-(4-(1H-imidazo[4,5-b]pyridine-5-yl)piperazine-1-carbonyl)-4-fluorobenzyl)phthalazine-1(dihydro)-one benzenesulfonate]",230 µg/mL
4,"O=C(c1cc(Cc2n[nH]c(=O)c3ccccc23)ccc1F)N1CCN(c2ccc3[nH]cnc3n2)CC1.O=S(=O)(O)CCO [4-(3-(4-(1H-imidazo[4,5-b]pyridine-5-yl)piperazine-1-carbonyl)-4-fluorobenzyl)phthalazine-1(dihydro)-one hydroxyethanesulfonate]",310 µg/mL
5,"Cl.O=C(c1cc(Cc2n[nH]c(=O)c3ccccc23)ccc1F)N1CCN(c2ccc3[nH]cnc3n2)CC1 [4-(3-(4-(1H-imidazo[4,5-b]pyridine-5-yl)piperazine-1-carbonyl)-4-fluorobenzyl)phthalazine-1(dihydro)-one hydrochloride]",340 µg/mL

# Same assay, conditions: thermodynamic from solid, stirred at constant temperature for 30 min
row,Structure (SMILES),solubility at 30 min
1,"O=C(c1cc(Cc2n[nH]c(=O)c3ccccc23)ccc1F)N1CCN(c2ccc3[nH]cnc3n2)CC1 [Formula I, 4-(3-(4-(1H-imidazo[4,5-b]pyridine-5-yl)piperazine-1-carbonyl)-4-fluorobenzyl)phthalazine-1(dihydro)-one]",1 µg/mL
